≈ marks a conversion by molar mass, not a printed value.

By MIC50 is commonly meant the lowest concentration that inhibits either 50% of growth or 50% of the strains tested, depending on the study.

The subject of this experiment is Staphylococcus aureus. Description: Antibacterial activity against Staphylococcus aureus subsp. aureus ATCC 29213 assessed as bacterial growth inhibition incubated for 24 hrs by Reed-Muench method. The format is functional.
Turning to `CC(C)=CCc1cc(C(=O)O[C@@H]2CC(C(=O)O)=C[C@@H](O)[C@H]2O)cc2c1OC(C)(C)C=C2`, the MIC50 stood at 56 µg/mL (≈ 131 µM). `CC(C)=CCc1cc(C(=O)O)cc2c1OC(C)(C)CC2=O`: the MIC50 turned out to be 93 µg/mL (≈ 323 µM). To `C=C(C)C(O)Cc1cc(C(=O)O)cc(CC=C(C)C)c1O` (stereo not drawn) belongs 89 µg/mL (≈ 307 µM); to `CC(C)=CCc1cc(C(=O)O)cc(CC=C(C)C)c1O`, 7.6 µg/mL (≈ 27.7 µM). As for `CC(C)=CCc1cc(C(=O)O[C@H](C)[C@@](C)(O)C(=O)O)cc(CC=C(C)C)c1O`, the figure is 23 µg/mL (≈ 58.9 µM); as for `CC(C)=CCc1cc(C(=O)O)cc2c1OC(C)(C)C=C2`, 15 µg/mL (≈ 55.1 µM). Take `CC1(C)S[C@@H]2[C@H](NC(=O)Cc3ccccc3)C(=O)N2[C@H]1C(=O)[O-].[Na+]` [PENICILLIN G SODIUM]: the MIC50 came out at 0.53 µg/mL. As to `C=C(C)C(O)Cc1cc(C(=O)O)cc2c1OC(C)(C)C=C2` (stereo not drawn), the MIC50 turned out to be 81 µg/mL (≈ 281 µM).

The values above are taken from ChEMBL document CHEMBL4811224, “Antibacterial Prenylated p-Hydroxybenzoic Acid Derivatives from Oberonia myosurus and Identification of Putative Prenyltransferases” (2021).
